Results: patent US20080064727A1, “Crystalline forms of tiagabine hydrochloride” (Cephalon, Inc., priority 2006, published 2008)

How the values were obtained:
Type in all cases: physicochemical
[1] = Moisture sorption/desorption (VTI SGA-100 moisture balance)
Description: Moisture sorption/desorption data were collected on a VTI SGA-100 moisture balance system. For sorption isotherms, a sorption range of 5 to 95% relative humidity (RH) and a desorption range of 95 to 5% RH in 10% RH increments were used for analysis. The samples were not dried prior to analysis. Equilibrium criteria used for analysis were less than 0.0100% weight change in 5 minutes with a maximum equilibration time of 3 hours if the weight criterion was not met. Data were not corrected for the initial moisture content of the samples.

[2] = Solid-form stability on storage, resulting form by XRPD analysis
Description: (§1) X-ray powder diffraction (XRPD) analyses were performed using the following instruments & methods:
(§2) A. Shimadzu XRD-6000 X-ray powder diffractometer using Cu Kα radiation. The instrument was equipped with a long fine focus X-ray tube. The tube voltage and amperage were set to 40 kV and 40 mA, respectively. The divergence and scattering slits were set at 1° and the receiving slit was set at 0.15 mm. Diffracted radiation was detected by a NaI scintillation detector. A θ-2θ continuous scan at 3°/min (0.4 sec/0.02° step) from 2.5 to 40° 2θ was used. A silicon standard was analyzed to check the instrument alignment. Data were collected and analyzed using XRD-6000 v. 4.1. Samples were prepared for analysis by placing them in a sample holder.
(§3) B. Inel XRG-3000 diffractometer, equipped with a CPS (Curved Position Sensitive) detector with a 2 Orange of 120°. Real time data were collected using Cu—Kα radiation starting at approximately 4° 2θ at a resolution of 0.03° 2θ. The tube voltage and amperage were set to 40 kV and 30 mA, respectively. The monochromator slit was set at 5 mm by 80 μm or 160 μm. […] Samples were prepared for analysis by packing them into thin-walled glass capillaries. Each capillary was mounted onto a goniometer head that is motorized to permit spinning of the capillary during data acquisition. The acquisition time was between 5 to 10 min. Instrument calibration was performed using a silicon reference standard.
(§4) D. Bruker D-8 Discover diffractometer and Bruker's General Area Diffraction Detection System (GADDS, v. 4.1.20). An incident beam of Cu—Kα radiation was produced using a fine-focus tube (40 kV, 40 mA), a Gobel mirror, and a 0.5 mm double-pinhole collimator. The samples were positioned for analysis by securing the well plate to a translation stage and moving each sample to intersect the incident beam. Alternatively, the sample was packed between 3-micron thick films to form a portable disc-shaped specimen, and the specimen was loaded in a holder secured to a translation stage. The samples were analyzed using a transmission geometry. The incident beam was scanned and rastered over the sample during the analysis to optimize orientation statistics. A beam-stop was used to minimize air scatter from the incident beam at low angles. Diffraction patterns were collected using a Hi-Star area detector located 15 cm from the sample and processed using GADDS. The intensity in the GADDS image of the diffraction pattern was integrated using a step size of 0.04° 2θ. The integrated patterns display diffraction intensity as a function of 2θ. Prior to the analysis a silicon standard was analyzed to verify the Si 111 peak position.
E. Peak Picking Methods. Any XRPD files generated from Inel or Bruker XRPD instruments were converted to Shimadzu .raw file using File Monkey version 3.0.4. The Shimadzu .raw file was processed by the Shimadzu XRD-6000 version 4.1 software to automatically find peak positions. The “peak position” means the maximum intensity of a peaked intensity profile. The following processes were used with the Shimadzu XRD-6000 “Basic Process” version 2.6 algorithm: • Smoothing was done on all patterns. • The background was subtracted to find the net, relative intensity of the peaks. • A peak from Cu K alpha2 (1.5444 Å) wavelength was subtracted from the peak generated by Cu K alpha1 (1.5406 Å) peak at 50% intensity for all patterns. Differential Scanning Calorimetry

[3] = Solid-form stability on heating, resulting form by XRPD analysis; settings: heated five (5) minutes at about 160° C. in an argon atmosphere, lyophilized sample (Preparation Method 3), hydrochloride
Description: as §1, §2, §3
C. Shimadzu XRD-6000 X-ray powder diffractometer equipped with an Anton Paar HTK 1200 high temperature stage (Variable-temperature XRPD (VT-XRPD)). The sample was packed in a ceramic holder and analyzed form 2.5 to 40° 2θ at 3°/min (0.4 sec/0.02° step). The heating rate was 10° C./min. A silicon standard was analyzed to check the instrument alignment. Temperature calibration was performed using vanillin and sulfapyridine USP melting point standards. Data were collected and analyzed using XPD-6000 v.4.1. The system was kept under a purge of nitrogen during the analysis.
as §4
E. Peak Picking Methods. Any XRPD files generated from Inel or Bruker XRPD instruments were converted to Shimadzu .raw file using File Monkey version 3.0.4. The Shimadzu .raw file was processed by the Shimadzu XRD-6000 version 4.1 software to automatically find peak positions. The “peak position” means the maximum intensity of a peaked intensity profile. The following processes were used with the Shimadzu XRD-6000 “Basic Process” version 2.6 algorithm: • Smoothing was done on all patterns. • The background was subtracted to find the net, relative intensity of the peaks. • A peak from Cu K alpha2 (1.5444 Å) wavelength was subtracted from the peak generated by Cu K alpha1 (1.5406 Å) peak at 50% intensity for all patterns. […]

[4] = Approximate solubility in various solvents by aliquot addition, visual dissolution; settings: thermodynamic from solid, amorphous obtained by Preparation Method 3
Description: Dissolution was determined visually. The actual solubilities may be higher than reported due to the use of excess solvent (e.g., because of slow dissolution rates).

Cc1ccsc1C(=CCCN1CCC[C@@H](C(=O)O)C1)c1sccc1C.Cl [tiagabine HCl amorphous, tiagabine hydrochloride]
Weight gain upon sorption ([1]; at 95% relative humidity (RH)): 12.1%
Weight loss upon desorption ([1]; from 95% to 5% RH): 9.5%
Forms present by XRPD analysis after moisture sorption/desorption ([1]; sample after sorption 5 to 95% RH and desorption 95 to 5% RH): tiagabine HCl Forms A and B
Time stable when stored ([2]; about 5° C., 11% relative humidity): at least 5 days
Time stable when stored ([2]; about 5° C., 43% relative humidity): ≥ 8 days
Time stable when stored ([2]; room temperature, 33% relative humidity): at least 22 days
Time stable when stored ([2]; room temperature, 58% relative humidity): at least 22 days
Form indicated by XRPD analysis after storage ([2]; stored 5 days, about 5° C., about 11% relative humidity, lyophilized sample (Preparation Method 3)): tiagabine HCl amorphous
Form indicated by XRPD analysis after storage ([2]; stored 8 days, about 5° C., about 43% relative humidity, lyophilized sample (Preparation Method 3)): tiagabine HCl amorphous
Form indicated by XRPD analysis after storage ([2]; stored 22 days, room temperature, about 33% relative humidity, crash-cooled sample (Preparation Method 1)): tiagabine HCl amorphous
Form indicated by XRPD analysis after storage ([2]; stored 22 days, room temperature, about 58% relative humidity, crash-cooled sample (Preparation Method 1)): tiagabine HCl amorphous
Form indicated by XRPD analysis after storage ([2]; stored 22 days, room temperature, about 75% relative humidity, crash-cooled sample (Preparation Method 1), hydrochloride): a mixture of tiagabine hydrochloride Forms A and B
Form indicated by XRPD analysis after storage ([2]; stored 22 days, room temperature, about 75% relative humidity, crash-cooled sample (Preparation Method 1), listed as Tiagabine hydrochloride amorphous, hydrochloride): a mixture of Forms A and B
Form indicated by XRPD analysis after storage ([2]; stored 22 days, room temperature, about 84% relative humidity, crash-cooled sample (Preparation Method 1), hydrochloride): a mixture of tiagabine hydrochloride Forms A and B
Form indicated by XRPD analysis after storage ([2]; stored 22 days, room temperature, about 84% relative humidity, crash-cooled sample (Preparation Method 1), listed as Tiagabine hydrochloride amorphous, hydrochloride): a mixture of Forms A and B
Form indicated by XRPD analysis after heating [3]: tiagabine HCl Form B
Form indicated by XRPD analysis after heating ([3]; listed as Tiagabine hydrochloride amorphous): tiagabine hydrochloride anhydrous
solubility ([4]; aqueous with cosolvent or surfactant or cyclodextrin, solvent: 2-propanol/water (1:1)): > 129 mg/mL
solubility ([4]; organic solvent or mixture, solvent: 1,4 dioxane/water (3:1)): > 359 mg/mL
solubility ([4]; organic solvent or mixture, solvent: Acetonitrile): < 26 mg/mL
solubility ([4]; organic solvent or mixture, solvent: Benzonitrile): > 448 mg/mL
solubility ([4]; organic solvent or mixture, solvent: Chloroform): > 582 mg/mL
solubility ([4]; organic solvent or mixture, solvent: Dichloromethane): < 34 mg/mL
solubility ([4]; organic solvent or mixture, solvent: Dioxane): > 542 mg/mL
solubility ([4]; organic solvent or mixture, solvent: Tetrahydrofuran): > 562 mg/mL
solubility ([4]; organic solvent or mixture, solvent: Toluene): < 43 mg/mL
solubility ([4]; organic solvent or mixture, solvent: Trifluoroethanol): > 713 mg/mL
solubility ([4]; organic solvent or mixture, solvent: ethanol/water (10:1)): > 400 mg/mL
solubility ([4]; organic solvent or mixture, solvent: ethyl acetate (wet)): > 1190 mg/mL
solubility ([4]; organic solvent or mixture, solvent: ethyl acetate): < 24 mg/mL
solubility ([4]; organic solvent or mixture, solvent: methyl ethyl ketone): > 546 mg/mL
solubility ([4]; organic solvent or mixture, solvent: methyl-tert-butyl ether): < 14 mg/mL
solubility ([4]; water, solvent: Water): > 490 mg/mL
